ChEMBL document CHEMBL1938245, “aza-Flavanones as potent cross-species microRNA inhibitors that arrest cell cycle” (Bioorg Med Chem Lett, 2012)
Active and inactive are the calls of the source. No cut-off for these calls is given here.

Legend:
[1] = tested on: Nucleic Acid; assay: Inhibition of miR-4644 in human HeLa cells assessed as increase in luminescence at 4 uM after 24 hrs by luciferase reporter gene assay relative to control; format: cell-based
[2] = tested on: Nucleic Acid; assay: Inhibition of miR-4644 in human MCF7 cells assessed as increase in luminescence at 4 uM after 24 hrs by luciferase reporter gene assay relative to control; format: cell-based
[3] = tested on: Drosophila; assay: Inhibition of miR-14 in transgenic Drosophila larvae expressing EGFP assessed as increase in EGFP protein expression in wing disc at 50 uM, po by Western blot analysis relative to control; format: functional, organism-based
[4] = tested on: MCF-10A; assay: Cytotoxicity against human MCF10A cells; format: cell-based
[5] = tested on: Drosophila; assay: Down regulation of miR-14 in Drosophila larvae at 50 uM, po by qRT-PCR analysis relative to control; format: functional
[6] = tested on: Drosophila; assay: Down regulation of mature-miR-14 in Drosophila larvae at 50 uM, po by qRT-PCR analysis relative to control; format: functional, organism-based
[7] = tested on: Nucleic Acid; assay: Inhibition of miR14 in Drosophila melanogaster S2 cells at 4 uM after 24 hrs by luciferase reporter gene assay; format: cell-based
[8] = tested on: MCF7; assay: Ratio of IC50 for HEK cells to IC50 for human MCF7 cells
[9] = tested on: Nucleic Acid; assay: Inhibition of mature-miR-4644 expression in human MCF7 cells at 4 uM after 10 mins by qRT-PCR analysis; format: cell-based
[10] = tested on: MCF7; assay: Cell cycle arrest in human MCF7 cells assessed as accumulation at G2/M phase at 4 uM after 24 hrs using propidium iodide staining by flow cytometry (reference value: 11%); format: functional
[11] = tested on: MCF7; assay: Cell cycle arrest in human MCF7 cells assessed as accumulation at S phase at 4 uM after 24 hrs using propidium iodide staining by flow cytometry (reference value: 9%); format: functional
[12] = tested on: Drosophila; assay: Down regulation of miR-3 in Drosophila larvae at 50 uM, po by qRT-PCR analysis relative to control; format: functional, organism-based
[13] = tested on: Nucleic Acid; assay: Inhibition of miR-30A in human HeLa cells assessed as increase in luminescence at 4 uM after 24 hrs by luciferase reporter gene assay relative to control; format: cell-based
[14] = tested on: MCF7; assay: Ratio of IC50 for human MCF10A cells to IC50 for human MCF7 cells
[15] = tested on: Drosophila; assay: Inhibition of miR-14 in transgenic Drosophila larvae assessed as increase in fluorescence in wing disc at 50 uM, po by EGFP reporter gene assay using confocal microscopy relative to control; format: functional, organism-based
[16] = tested on: MCF7; assay: Cell cycle arrest in human MCF7 cells assessed as accumulation at G0/G1 phase at 4 uM after 24 hrs using propidium iodide staining by flow cytometry (reference value: 79%); format: functional
[17] = Cytotoxicity against HEK cells; format: cell-based; conditions: human, hek293
[18] = tested on: Nucleic Acid; assay: Inhibition of Pri-miR-4644 expression in human HeLa cells at 4 uM after 10 mins by qRT-PCR analysis; format: cell-based
[19] = tested on: Drosophila; assay: Down regulation of pri-miR-14 in Drosophila larvae at 50 uM, po by qRT-PCR analysis relative to control; format: functional, organism-based
[20] = tested on: Nucleic Acid; assay: Inhibition of mature-miR-4644 expression in human HeLa cells at 4 uM after 10 mins by qRT-PCR analysis; format: cell-based
[21] = tested on: Nucleic Acid; assay: Inhibition of pri-miR-4644 expression in human MCF7 cells at 4 uM after 10 mins by qRT-PCR analysis; format: cell-based
[22] = tested on: Nucleic Acid; assay: Inhibition of miR-4644 in human HeLa cells assessed as reduction in luminescence at 4 uM after 24 hrs by luciferase reporter gene assay relative to control; format: cell-based
[23] = tested on: Nucleic Acid; assay: Inhibition of miR-4644 in human MCF7 cells assessed as reduction in luminescence at 4 uM after 24 hrs by luciferase reporter gene assay relative to control; format: cell-based

In the case of `COc1ccc(C2CC(=O)c3ccccc3N2)cc1` (stereo unspecified), the inhibition [1] is reported as “inactive” and the inhibition [2] is reported as “inactive”.
With `O=C1CC(c2ccc(O)cc2O)Nc2ccccc21` (stereo unspecified) the inhibition [3] was “Active”, the Activity [4] was “Non-toxic” and the “fold change (FC)” value [5] was 5. The Activity [6] was “Active”, the inhibition [7] was “Active” and the “Ratio IC50” value [8] was 2. It also gave an inhibition [9] of 20%, an Activity [10] of 7% and an Activity [11] of 8%. The Activity [12] was “inactive”, the inhibition [13] was “inactive” and the “Ratio IC50” value [14] was 3. The fold change (FC) [1] was 3, the inhibition [15] was “Active” and the Activity [16] was 85%. For the same compound, the Activity [17] was “Non-toxic”, the fold change (FC) [2] was 3 and the inhibition [18] was 20%. The Activity [19] was “Active”, the inhibition [20] was 20% and the inhibition [21] was 20%.
`O=C1CC(c2ccc(-c3ccoc3)cc2)Nc2ccccc21` (stereo unspecified) gave an inhibition [22] of 56% and an inhibition [23] of 21%.
With `CC(=O)Oc1ccc(C2CC(=O)c3ccccc3N2)c(OC(C)=O)c1` (stereo unspecified) the inhibition [22] was 56% and the inhibition [23] was 21%.
In the case of `O=C1CC(c2ccc(Br)cc2)Nc2ccccc21` (stereo unspecified), the inhibition [3] is reported as “Active”, the Activity [4] is reported as “Non-toxic” and the “fold change (FC)” value [5] is reported as 5. The Activity [6] was “Active”, the inhibition [7] was “Active” and the “Ratio IC50” value [8] was 2. It also gave an inhibition [9] of 20%, an Activity [10] of 7% and an Activity [11] of 9%. For the same compound, the Activity [12] was “inactive”, the inhibition [13] was “inactive” and the “Ratio IC50” value [14] was 3. For the same compound, the fold change (FC) [1] was 3, the inhibition [15] was “Active” and the Activity [16] was 83%. The Activity [17] was “Non-toxic”, the fold change (FC) [2] was 3 and the inhibition [18] was 20%. For the same compound, the Activity [19] was “Active”, the inhibition [20] was 20% and the inhibition [21] was 20%.
For `Cc1cc(C)c(C2CC(=O)c3ccccc3N2)c(C)c1` (stereo unspecified), the inhibition [22] was 56% and the inhibition [23] was 21%.
Compound `Cc1ccc(S(=O)(=O)Oc2ccc(C3CC(=O)c4ccccc4N3)c(OS(=O)(=O)c3ccc(C)cc3)c2)cc1` (stereo unspecified) has an inhibition [22] of 56% and an inhibition [23] of 21%.
`O=C1CC(c2c[nH]c3ccccc23)Nc2ccccc21` (stereo unspecified) showed an inhibition [22] of 56% and an inhibition [23] of 21%.
For `O=C1CC(c2ccccc2)Nc2ccccc21` (stereo unspecified), the inhibition [1] was “inactive” and the inhibition [2] was “inactive”.
